Data from patent US6525059B1, “Substituted pyrazoles as p38 kinase inhibitors” (G. D. Searle & Company, priority 1998, dated 2003).
Several values for one entry are separate records, joined by “and”; a condition that tells them apart may be missing. Identical values can stand only once. Counter-ions that a name gives are not always drawn. Like-named read-outs stand apart in the source and are kept apart here. Blank lines part the entries; values can stand above or below the compound they belong to.

What was measured:
[1] = molecular target: T1, human GST-p38 kinase alpha (Homo sapiens, UniProt Q16539); experiment: p38 kinase in vitro assay, second format, phosphorylation of EGFRP with 33P-ATP; format: biochemical; conditions: read-out: p38α Kinase Assay IC50
T1 construct: The coding region of the human p38a cDNA was obtained by PCR-amplification from RNA isolated from the human monocyte cell line THP.1; made in house; host or cells: E. coli DH10B
Method: A second assay format was also employed that is based on p38 kinase alpha induced phosphorylation of EGFRP (epidermal growth factor receptor peptide, a 21 mer) in the presence of ^33P-ATP. Compounds were tested in 10 fold serial dilutions over the range of 100 μM to 0.001 μM in 10% DMSO. Each concentration of inhibitor was tested in triplicate. Compounds were evaluated in 50 μl reaction volumes in the presence of 25 mM Hepes pH 7.5, 10 mM magnesium acetate, 4% glycerol, 0.4% bovine serum albumin, 0.4 mM DTT, 50 μM unlabeled ATP, 25 μg EGFRP (200 μM), and 0.05 uCi gamma ^33P-ATP. Reactions were initiated by addition of 0.09 μg of activated, purified human GST-p38 kinase alpha. Activation was carried out using GST-MKK6 (5:1, p38: MKK6) for one hour at 30° C. in the presence of 50 μM ATP. Following incubation for 60 minutes at room temperature, the reaction was stopped by addition of 150 μl of AG 1×8 resin in 900 mM sodium formate buffer, pH 3.0 (1 volume resin to 2 volumes buffer). The mixture was mixed three times with pipetting and the resin was allowed to settle. A total of 50 μl of clarified solution head volume was transferred from the reaction wells to Microlite-2 plates. 150 μl of Microscint 40 was then added to each well of the Microlite plate, and the plate was sealed, mixed, and counted.

TNF-α = experiment: Rat assay: LPS-challenged rats, serum TNF-α by ELISA; format: in vivo; conditions: Rattus norvegicus, po; for inhibition in vivo at 10 mg/kg: Table 8, dose 10.0 mg/kg; for inhibition in vivo at 3 mg/kg: Table 8, dose 3.0 mg/kg
human TNF = experiment: TNF inhibition: human whole blood assay; format: cell-based; conditions: Homo sapiens
human p38 kinase alpha = molecular target: T2, human p38 kinase alpha (Homo sapiens, UniProt Q16539); experiment: p38 kinase in vitro assay, phosphorylation of biotinylated PHAS-I with gamma 32P-ATP; format: biochemical; conditions: read-out: p38 alpha IC50
T2 construct: The coding region of the human p38a cDNA was obtained by PCR-amplification from RNA isolated from the human monocyte cell line THP.1; GST (N); made in house; host or cells: E. coli DH10B
Outline: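 Radiometric filter-capture read-out: streptavidin plates trap biotin-PHAS-I labelled by activated (MKK6) human p38α from γ-32P-ATP. Buffer 25 mM HEPES pH 7.5, 10 mM magnesium acetate, 50 μM cold ATP; reactions 1 h or overnight at 30 °C; inhibitors 10-fold dilutions 100 to 0.001 μM, triplicates, 1% DMSO.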

[2] = Table 8, human whole blood, LPS, read-out: TNF Inhibition-Human Whole Blood Assay
[3] = Table 8, dose 1.0 mg/kg, read-out: Rat LPS Assay % Inhibition
[4] = Table 8, dose 5.0 mg/kg, read-out: Rat LPS Assay % Inhibition
[5] = read-out: Rat LPS Assay % Inhibition
[6] = Table 9, human whole blood, LPS, read-out: TNF Inhibition-Human Whole Blood Assay
[7] = Table 10, human whole blood, LPS, read-out: TNF Inhibition-Human Whole Blood Assay
[8] = 5.0 mg/kg oral gavage, 4 hours before LPS challenge, read-out: ratLPS/% Inh @5.0 (mg/kg)
[9] = TNF production, LPS-stimulated human whole blood, read-out: HWB IC50
[10] = 1.0 mg/kg oral gavage, 4 hours before LPS challenge, read-out: ratLPS/% Inh @1.0 (mg/kg)

T1 sequence (Q16539 whole entry): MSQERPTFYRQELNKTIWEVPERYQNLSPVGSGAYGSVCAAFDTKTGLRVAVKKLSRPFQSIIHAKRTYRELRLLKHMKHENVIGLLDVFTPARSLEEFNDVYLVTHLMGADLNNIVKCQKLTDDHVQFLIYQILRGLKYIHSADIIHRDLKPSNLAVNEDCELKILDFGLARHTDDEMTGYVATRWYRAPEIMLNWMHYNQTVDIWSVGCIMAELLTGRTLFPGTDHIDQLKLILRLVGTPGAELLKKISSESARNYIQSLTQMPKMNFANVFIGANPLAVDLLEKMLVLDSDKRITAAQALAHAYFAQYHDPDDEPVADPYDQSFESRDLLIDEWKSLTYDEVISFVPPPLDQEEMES
T2 sequence (Q16539 whole entry): as above

SMILES: CN1CCN(Cc2n[nH]c(-c3ccc(F)cc3)c2-c2ccncc2)CC1 [A-313, Step 3, 1-[[5-(4-fluorophenyl)-4-(4-pyridinyl)-1H-pyrazol-3-yl]methyl]-4-methylpiperazine]
- IC50 ([1]; Table 8, 10% DMSO): 370 nM
- inhibition in vivo at 20 mg/kg (TNF-α; Table 8, dose 20.0 mg/kg): 96%
- IC50 (human TNF; [2]): 120 nM

SMILES: Fc1ccc(-c2[nH]nc(CN3CCNCC3)c2-c2ccncc2)cc1 [A-314, Step 2, 1-[[5-(4-fluorophenyl)-4-(4-pyridinyl)-1H-pyrazol-3-yl]methyl]-4-piperazine]
- IC50 ([1]; Table 8, 10% DMSO): 32 nM
- inhibition in vivo at 1 mg/kg (TNF-α; [3]): 0%
- inhibition in vivo at 5 mg/kg (TNF-α; [4]): 53%
- inhibition in vivo at 20 mg/kg (TNF-α; Table 8, dose 20.0 mg/kg): 85%
- IC50 (human TNF; [2]): 470 nM

- IC50 ([1]; Table 8, 10% DMSO): 49 nM
- IC50 (human TNF; [2]): 1750 nM
SMILES: Fc1ccc(-c2n[nH]c(CC3CCNCC3)c2-c2ccncc2)cc1 [Example A-315, 4-[3-(4-fluorophenyl)-5-(4-piperidinylmethyl)-1H-pyrazol-4-yl]pyridine]

SMILES: CN1CCN(c2n[nH]c(-c3ccc(F)cc3)c2-c2ccncc2)CC1 [Example A-317, 1-[5-(4-fluorophenyl)-4-(4-pyridinyl)-1H-pyrazol-3-yl]-4-methylpiperazine, dihydrate]
- IC50 ([1]; Table 8, 10% DMSO): 70 nM
- inhibition in vivo at 10 mg/kg (TNF-α): 69%
- IC50 (human TNF; [2]): 450 nM

SMILES: C#CCn1nc(N2CCNCC2)c(-c2ccncc2)c1-c1ccc(Cl)cc1 [Example A-318, 1-[5-(4-chlorophenyl)-4-(4-pyridinyl)-1-(2-propynyl)-1H-pyrazol-3-yl]piperazine, trihydrochloride monohydrate]
- IC50 ([1]; Table 8, 10% DMSO): 580 nM and 370 nM and 600 nM
- inhibition in vivo at 3 mg/kg (TNF-α; [5]): 54%
- IC50 (human TNF; [2]): 167 nM

SMILES: Clc1ccc(-c2[nH]nc(NC3CCNCC3)c2-c2ccncc2)cc1 [Example A-332, N-[5-(4-chlorophenyl)-4-(4-pyridinyl)-3H-pyrazol-3-yl]-4-piperidineamine, trihydrochloride, monohydrate]
- IC50 ([1]; Table 8, 10% DMSO): 15 nM and < 100 nM
- inhibition in vivo at 1 mg/kg (TNF-α; [3]): 33%
- inhibition in vivo at 3 mg/kg (TNF-α; [5]): 26%
- inhibition in vivo at 5 mg/kg (TNF-α; [4]): 25%
- inhibition in vivo at 10 mg/kg (TNF-α): -85%
- IC50 (human TNF; [2]): 450 nM

SMILES: CN1CCC(Nc2n[nH]c(-c3ccc(Cl)cc3)c2-c2ccncc2)CC1 [Example A-334, N-[5-(4-chlorophenyl)-4-(4-pyridinyl)-1H-pyrazol-3-yl]-1-methyl-4-piperidinamine]
- IC50 ([1]; Table 8, 10% DMSO): 70 nM
- inhibition in vivo at 1 mg/kg (TNF-α; [3]): 36%
- inhibition in vivo at 5 mg/kg (TNF-α; [4]): 57%
- inhibition in vivo at 20 mg/kg (TNF-α; Table 8, dose 20.0 mg/kg): 95%
- IC50 (human TNF; [2]): 220 nM

- IC50 ([1]; Table 8, 10% DMSO): 89900 nM
- IC50 (human TNF; [2]): > 25000 nM
SMILES: Clc1ccc(-c2[nH]nc(N3CCN(c4ccccc4)CC3)c2-c2ccncc2)cc1 [Example A-335, 1-[5-(4-chlorophenyl)-4-(4-pyridinyl)-1H-pyrazol-3-yl]-4-phenylpiperazine]

- IC50 ([1]; Table 8, 10% DMSO): 1350 nM
- IC50 (human TNF; [2]): > 25000 nM
SMILES: CCOC(=O)N1CCC(Nc2n[nH]c(-c3ccc(F)cc3)c2-c2ccncc2)CC1 [Example A-337, Ethyl 4-[[5-(4-fluorophenyl)-4-(4-pyridinyl)-1H-pyrazol-3-yl]amino]-1-piperidinecarboxylate, monohydrate]

- IC50 ([1]; Table 8, 10% DMSO): 18 nM
- IC50 (human TNF; [2]): 59 nM
SMILES: CN1CCC(Nc2n[nH]c(-c3ccc(F)cc3)c2-c2ccncc2)CC1 [Example A-338, N-[5-(4-fluorophenyl)-4-(pyridinyl)-1H-pyrazol-3-yl]-1-methyl-4-piperidinamine]

- IC50 ([1]; Table 8, 10% DMSO): 52 nM
- IC50 (human TNF; [2]): 56 nM
SMILES: Fc1ccc(-c2[nH]nc(NC3CCNCC3)c2-c2ccncc2)cc1 [Example A-339, N-[5-(4-fluorophenyl)-4-(4-pyridinyl)-1H-pyrazol-3-yl]-4-piperidinamine, trihydrochloride]

SMILES: Fc1ccc(-c2n[nH]cc2-c2ccnc(NCC3CCNCC3)c2)cc1 [Example A-351, 4-[3-(4-fluorophenyl)-1H-pyrazol-4-yl]-N-(4-piperidinylmethyl)-2-pyridinamine]
- IC50 ([1]; Table 9, 10% DMSO): 270 nM
- inhibition in vivo at 20 mg/kg (TNF-α; Table 9, dose 20 mg/kg): 0%
- IC50 (human TNF; [6]): 490 nM

SMILES: CCN(CC)CC(Nc1cc(-c2c[nH]nc2-c2ccc(F)cc2)ccn1)c1ccccc1 (centres unmarked) [Example A-353, N2,N2-diethyl-N1-[4-[3-(4-fluorophenyl)-1H-pyrazol-4-yl]-2-pyridinyl]-1-phenyl-1,2-ethanediamine]
- IC50 ([1]; Table 9, 10% DMSO): 37 nM
- inhibition in vivo at 20 mg/kg (TNF-α; Table 9, dose 20 mg/kg): 49%
- IC50 (human TNF; [6]): 5300 nM

SMILES: CC(C)C[C@@H](CO)Nc1cc(-c2c[nH]nc2-c2ccc(F)cc2)ccn1 [Example A-354, (2S)-2-[[4-[3-(4-fluorophenyl)-1H-pyrazol-4-yl]-2-pyridinyl]amino]-4-methyl-1-pentanol]
- IC50 ([1]; Table 9, 10% DMSO): 220 nM
- inhibition in vivo at 20 mg/kg (TNF-α; Table 9, dose 20 mg/kg): 0%
- IC50 (human TNF; [6]): 25000 nM

SMILES: CC(C)C(CO)Nc1cc(-c2c[nH]nc2-c2ccc(F)cc2)ccn1 (centres unmarked) [Example A-355, 2-[[4-[3-(4-fluorophenyl)-1H-pyrazol-4-yl]-2-pyridinyl]amino]-3-methyl-1-butanol]
- IC50 ([1]; Table 9, 10% DMSO): 50 nM
- inhibition in vivo at 26 mg/kg (TNF-α; Table 9, dose 26 mg/kg): 0%
- IC50 (human TNF; [6]): 95 nM

SMILES: CCOC(=O)N1CCC(Nc2cc(-c3c[nH]nc3-c3ccc(F)cc3)ccn2)CC1 [Example A-356, ethyl 4-[[4-[3-(4-fluorophenyl)-1H-pyrazol-4-yl]-2-pyridinyl]amino]-1-piperidinecarboxylate]
- IC50 ([1]; Table 9, 10% DMSO): < 10 nM
- inhibition in vivo at 20 mg/kg (TNF-α; Table 9, dose 20 mg/kg): 73%
- IC50 (human TNF; [6]): 5300 nM

- IC50 ([1]; Table 10, 10% DMSO, @ 1.0 hour): 7760 nM
- IC50 (human TNF; [7]): > 25000 nM
SMILES: CS(=O)(=O)c1[nH]nc(-c2ccc(F)cc2)c1-c1ccncc1 [Example A-437, 3-(4-fluorophenyl)-5-(methylsulfonyl)-4-pyridin-4-yl-1H-pyrazole]

- IC50 ([1]; Table 10, 10% DMSO, @ 1.0 hour): 1840 nM
- IC50 (human TNF; [7]): 8910 nM
SMILES: Clc1ccc(-c2n[nH]c(SCCN3CCCC3)c2-c2ccncc2)cc1 [Example A-460]

SMILES: O=C([C@H](O)c1ccccc1)N1CCC(c2[nH]nc(-c3ccc(Cl)cc3)c2-c2ccncn2)CC1 [Example D-7, (R)-N-(2-Hydroxy-2-phenylacetyl)-5-(4-piperidyl)-4-(4-pyrimidyl)-3-(4-chlorophenyl)pyrazole]
- IC50 (human p38 kinase alpha): 440 nM
- inhibition in vivo at 5 mg/kg (TNF-α; [8]): 0%
- IC50 (human TNF; [9]): > 25000 nM

SMILES: O=C(CO)N1CCC(c2[nH]nc(-c3ccc(F)cc3)c2-c2ccncn2)CC1 [Example D-8]
- IC50 (human p38 kinase alpha): 180 nM
- inhibition in vivo at 1 mg/kg (TNF-α; [10]): 65%
- inhibition in vivo at 5 mg/kg (TNF-α; [8]): 85%
- IC50 (human TNF; [9]): 1300 nM

SMILES: O=C(CO)N1CCC(c2[nH]nc(-c3ccc(C(F)(F)F)cc3)c2-c2ccncn2)CC1 [Example D-9]
- IC50 (human p38 kinase alpha): 1630 nM
- inhibition in vivo at 1 mg/kg (TNF-α; [10]): 5%
- inhibition in vivo at 5 mg/kg (TNF-α; [8]): 86%
- IC50 (human TNF; [9]): 15800 nM

SMILES: O=C(CO)N1CCC(c2[nH]nc(-c3ccc(OC(F)(F)F)cc3)c2-c2ccncn2)CC1 [Example D-10, N-(2-Hydroxyacetyl)-5-(4-piperidyl)-4-(4-pyrimidyl)-3-(4-trifluoromethoxyphenyl)pyrazole]
- IC50 (human p38 kinase alpha): 3950 nM
- inhibition in vivo at 5 mg/kg (TNF-α; [8]): 80%
- IC50 (human TNF; [9]): 14800 nM

SMILES: O=C(CO)N1CCC(c2[nH]nc(-c3cccc(Cl)c3)c2-c2ccncn2)CC1 [Example D-11, N-(2-Hydroxyacetyl)-5-(4-piperidyl)-4-(4-pyrimidyl)-3-(3-chlorophenyl)pyrazole]
- IC50 (human p38 kinase alpha): 160 nM
- inhibition in vivo at 1 mg/kg (TNF-α; [10]): 43%
- inhibition in vivo at 5 mg/kg (TNF-α; [8]): 86%
- IC50 (human TNF; [9]): 1500 nM

SMILES: O=C(CO)N1CCC(c2[nH]nc(-c3cccc(F)c3)c2-c2ccncn2)CC1 [Example D-12, N4(2Hydroxyacetyl)-5-(4-piperidyl)-4-(4-pyrimidyl)-3-(3-fluorophenyl)pyrazole]
- IC50 (human p38 kinase alpha): 820 nM
- inhibition in vivo at 1 mg/kg (TNF-α; [10]): 71%
- inhibition in vivo at 5 mg/kg (TNF-α; [8]): 91%
- IC50 (human TNF; [9]): 7060 nM

SMILES: O=C(CO)N1CCC(c2[nH]nc(-c3cccc(C(F)(F)F)c3)c2-c2ccncn2)CC1 [Example D-13]
- IC50 (human p38 kinase alpha): 330 nM
- inhibition in vivo at 1 mg/kg (TNF-α; [10]): 53%
- inhibition in vivo at 5 mg/kg (TNF-α; [8]): 87%
- IC50 (human TNF; [9]): 8360 nM
